Measurements: article PMC6886798, “Expression of myeloid Src-family kinases is associated with poor prognosis in AML and influences Flt3-ITD kinase inhibitor acquired resistance” (PLoS ONE, 2019)
Where two headings read alike, the source gives them in different places.

Tests used:
Hck T338M = target: T1, Hck T338M (Homo sapiens, UniProt P08631, T333M); assay: Z'-LYTE in vitro kinase assay; format: biochemical
T1 construct: Recombinant near-full-length kinases, consisting of the SH2, SH3 and kinase domains plus the negative regulatory tail; made in house; host or cells: E. coli BL21Star (DE3), co-expressed with Csk and PTP1B

Fgr T338L = target: T2, Fgr T338L (Homo sapiens, UniProt P09769, T334L); assay: Z'-LYTE in vitro kinase assay; format: biochemical; details: read-out: A-419259 IC50, Fig 5B, ATP at Km, mean ± SE, three independent determinations
T2 construct: Recombinant near-full-length kinases, consisting of the SH2, SH3 and kinase domains plus the negative regulatory tail; made in house; host or cells: E. coli BL21Star (DE3), co-expressed with Csk and PTP1B
Procedure: (§5) Assays were performed in quadruplicate in 384-well low volume, non-binding, black polystyrene microplates (Corning) according to the manufacturer’s instructions. Briefly, this assay measures phosphorylation of the Tyr2 peptide substrate which is tagged with coumarin and fluorescein on its N- and C-termini, respectively, to form a FRET pair. After the kinase reaction, a development step involves site-specific proteolytic cleavage of the unphosphorylated but not the phosphorylated peptide. […] Kinase reactions were run in 50 mM HEPES, pH 7.5, 10 mM MgCl2, 1 mM EGTA, and 0.01% BRIJ-35 (buffer supplied by the manufacturer). […] Following incubation for 1 h at ambient temperature, reactions were quenched by addition of the development protease, and coumarin and fluorescein fluorescence were measured 1 h later on a Molecular Devices SpectraMax M5 plate reader. […] For experiments with inhibitors, compounds were preincubated with kinase for 30 min prior to initiation of the reaction by the addition of ATP.

Fgr T338F = target: T3, Fgr T338F (Homo sapiens, UniProt P09769, T334F); assay: Z'-LYTE in vitro kinase assay; format: biochemical
T3 construct: Recombinant near-full-length kinases, consisting of the SH2, SH3 and kinase domains plus the negative regulatory tail; made in house; host or cells: E. coli BL21Star (DE3), co-expressed with Csk and PTP1B
Procedure: as §5

[1] = tested on: parental TF-1 cells (GM-CSF); assay: CellTiter-Blue cell viability; format: cell-based, human; details: at 3.0 μM; 72 hours; in the presence of GM-CSF
Procedure: TF-1 and MV4-11 cells were obtained from the American Type Culture Collection (ATCC) and cultured in RPMI 1640 medium supplemented with 10% fetal bovine serum (FBS), 100 units/ml of penicillin, 100 μg/ml of streptomycin sulfate, and 0.25 μg/ml of amphotericin B (Antibiotic-Antimycotic; Gibco/ThermoFisher). Parental TF-1 cells also require recombinant human GM-CSF (1 ng/mL; ThermoFisher). MOLM13 and MOLM14 cells were obtained from Leibniz Institute Deutsche Sammlung von Mikroorganismen (DSMZ) and grown in RPMI 1640 medium containing 20% FBS and Antibiotic-Antimycotic. Human 293T cells were obtained from ATCC and cultured in Dulbecco's modified Eagle's medium (DMEM) containing 10% FBS and Antibiotic-Antimycotic.
(§1) Cells were seeded at 10^5 per mL in the presence or absence of inhibitors with DMSO as carrier solvent (0.1% final). Cell viability was assessed using the CellTiter-Blue reagent according to the manufacturer’s instructions (Promega). Fluorescence intensity, which correlates directly with viable cell number, was measured using a SpectraMax M5 microplate reader. Each experiment included three technical replicates per condition, and each experiment was repeated at least three times.

MOLM13 cells (parent) = assay: CellTiter-Blue cell viability; format: cell-based, human
Procedure: (§2) Gibco/ThermoFisher). Parental TF-1 cells also require recombinant human GM-CSF (1 ng/mL; ThermoFisher). MOLM13 and MOLM14 cells were obtained from Leibniz Institute Deutsche Sammlung von Mikroorganismen (DSMZ) and grown in RPMI 1640 medium containing 20% FBS and Antibiotic-Antimycotic. […] Cell viability was assessed using the CellTiter-Blue reagent according to the manufacturer’s instructions (Promega). Fluorescence intensity, which correlates directly with viable cell number, was measured using a SpectraMax M5 microplate reader. Each experiment included three technical replicates per condition, and each experiment was repeated at least three times.

MOLM14 cells (parent) = assay: CellTiter-Blue cell viability; format: cell-based, human
Procedure: as §2

MV4-11 cells (parent) = assay: CellTiter-Blue cell viability; format: cell-based, human
Procedure: as §2

[2] = tested on: TF-1/FLT3-ITD + Fgr-T338L cells; assay: CellTiter-Blue cell viability; format: cell-based, human
Procedure: (§3) Full-length cDNA clones of each kinase were subcloned into the retroviral expression vectors pMSCV-neo or pMSCV-puro (Clontech). High-titer retroviral stocks were produced in 293T cells co-transfected with each pMSCV construct and an amphotropic packaging vector. TF-1 cells (10^6) were resuspended in 5.0 mL of undiluted viral supernatant and centrifuged at 1,000 × g for 4 h at 18 °C in the presence of 4 μg/mL Polybrene (Sigma-Aldrich) to enhance viral transduction. Forty-eight hours after infection, the cells began a two-week selection period with 400 μg/ml G-418 (neo vectors) or 3 μg/mL puromycin (puro vectors). Following selection, cells were maintained with 200 μg/ml G418 or 1 μg/mL puromycin. For double transduction experiments, TF-1 cells were first infected with the pMSCV-neo-Flt3-ITD virus, selected with G418, followed by the pMSCV-puro virus carrying Hck or Fgr and puromycin selection. All TF-1 cell populations that expressed Flt3-ITD (including inhibitor-resistant mutants) proliferated in a GM-CSF-independent manner, and were therefore subcultured in the absence of GM-CSF.
as §1

[3] = tested on: TF-1/Flt3-ITD N676S + Fgr cells; assay: CellTiter-Blue cell viability; format: cell-based, human; details: S9 Fig, 48 h
Procedure: as §3, §1

DAPK3 = target: T4, DAPK3 (Homo sapiens, UniProt O43293); assay: KINOMEscan; format: binding; details: 1.0 µM
T4 construct: purchased Eurofins/DiscoverX KINOMEscan scanMAX
Procedure: (§4) Kinase retention to the immobilized ligand is then measured using quantitative real-time PCR for each kinase-specific DNA barcode.

JNK2 = target: T5, JNK2 (Homo sapiens, UniProt P45984); assay: KINOMEscan; format: binding; details: 1.0 µM
T5 construct: purchased Eurofins/DiscoverX KINOMEscan scanMAX
Procedure: as §4

MRCKA = target: T6, MRCKA (Homo sapiens, UniProt Q5VT25); assay: KINOMEscan; format: binding; details: 1.0 µM
T6 construct: purchased Eurofins/DiscoverX KINOMEscan scanMAX
Procedure: as §4

TYRO3 = target: T7, TYRO3 (Homo sapiens, UniProt Q06418); assay: KINOMEscan; format: binding; details: 1.0 µM
T7 construct: DNA tag (qPCR barcode); purchased Eurofins/DiscoverX KINOMEscan scanMAX
Procedure: as §4

WNK4 = target: T8, WNK4 (Homo sapiens, UniProt Q96J92); assay: KINOMEscan; format: binding; details: 1.0 µM
T8 construct: DNA tag (qPCR barcode); purchased Eurofins/DiscoverX KINOMEscan scanMAX
Procedure: as §4

CDC2L5 = CDC2L5 (Homo sapiens, UniProt Q14004); details: 1.0 µM
Procedure: as §4

PKNB(M.tuberculosis) = PKNB(M.tuberculosis) (Mycobacterium tuberculosis, UniProt P9WI81); details: 1.0 µM
Procedure: as §4

EGFR(L747-T751del,Sins) = assay: KINOMEscan; format: binding, human; details: 1.0 µM
Procedure: as §4

FLT3(ITD,D835V) = assay: KINOMEscan; format: binding, human; details: 1.0 µM
Procedure: as §4

LCK = target: T9, LCK (Homo sapiens, UniProt P06239); assay: KINOMEscan; format: binding; details: 1.0 µM
T9 construct: purchased Eurofins/DiscoverX KINOMEscan scanMAX

PRP4 = target: T10, PRP4 (Homo sapiens, UniProt Q13523); assay: KINOMEscan; format: binding; details: 1.0 µM
T10 construct: purchased Eurofins/DiscoverX KINOMEscan scanMAX

[4] = read-out: A-419259 Sensitivity (IC50, nM) Initial, mean ± SE (n = 3)
[5] = read-out: A-419259 Sensitivity (IC50, nM) Post-holiday, after 4 weeks passage in the absence of inhibitor, mean ± SE (n = 3)

T1 sequence (P08631 78-526 T333M limits assumed): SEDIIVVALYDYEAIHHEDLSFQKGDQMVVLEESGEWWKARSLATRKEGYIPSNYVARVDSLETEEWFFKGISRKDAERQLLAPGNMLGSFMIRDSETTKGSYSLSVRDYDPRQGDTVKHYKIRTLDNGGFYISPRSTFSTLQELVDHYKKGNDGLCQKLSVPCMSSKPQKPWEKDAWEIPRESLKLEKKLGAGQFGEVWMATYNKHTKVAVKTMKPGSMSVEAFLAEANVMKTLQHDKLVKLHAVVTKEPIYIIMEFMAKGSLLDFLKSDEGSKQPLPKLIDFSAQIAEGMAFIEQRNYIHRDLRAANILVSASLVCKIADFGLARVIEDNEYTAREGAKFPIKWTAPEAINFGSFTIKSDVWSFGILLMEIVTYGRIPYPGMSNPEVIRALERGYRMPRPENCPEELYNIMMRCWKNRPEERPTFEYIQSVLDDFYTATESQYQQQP
T9 sequence (P06239 whole entry): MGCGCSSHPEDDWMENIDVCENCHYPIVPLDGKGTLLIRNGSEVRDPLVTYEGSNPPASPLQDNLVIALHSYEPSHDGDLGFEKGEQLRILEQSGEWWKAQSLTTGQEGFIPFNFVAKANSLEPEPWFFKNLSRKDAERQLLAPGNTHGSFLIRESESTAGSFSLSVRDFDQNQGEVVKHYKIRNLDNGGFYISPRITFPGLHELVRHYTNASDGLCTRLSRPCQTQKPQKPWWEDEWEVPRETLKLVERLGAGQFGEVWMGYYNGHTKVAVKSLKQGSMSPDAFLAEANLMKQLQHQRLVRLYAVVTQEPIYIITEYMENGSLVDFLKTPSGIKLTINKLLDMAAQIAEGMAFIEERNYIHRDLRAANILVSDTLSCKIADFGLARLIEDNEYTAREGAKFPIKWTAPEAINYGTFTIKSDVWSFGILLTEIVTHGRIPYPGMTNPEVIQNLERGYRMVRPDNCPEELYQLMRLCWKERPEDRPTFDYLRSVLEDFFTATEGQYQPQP
T5 sequence (P45984 whole entry): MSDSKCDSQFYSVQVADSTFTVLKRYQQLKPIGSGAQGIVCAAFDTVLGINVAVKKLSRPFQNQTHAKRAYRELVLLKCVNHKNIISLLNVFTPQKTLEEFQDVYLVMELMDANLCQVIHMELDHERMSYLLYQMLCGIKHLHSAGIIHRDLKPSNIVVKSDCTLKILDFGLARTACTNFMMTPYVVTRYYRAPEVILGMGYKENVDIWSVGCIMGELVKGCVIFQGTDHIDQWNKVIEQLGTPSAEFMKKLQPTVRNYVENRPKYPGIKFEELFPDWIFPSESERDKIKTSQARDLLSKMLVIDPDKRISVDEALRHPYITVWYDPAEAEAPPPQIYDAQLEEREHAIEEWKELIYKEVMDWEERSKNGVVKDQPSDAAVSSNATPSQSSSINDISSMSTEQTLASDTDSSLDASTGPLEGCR
T4 sequence (O43293 whole entry): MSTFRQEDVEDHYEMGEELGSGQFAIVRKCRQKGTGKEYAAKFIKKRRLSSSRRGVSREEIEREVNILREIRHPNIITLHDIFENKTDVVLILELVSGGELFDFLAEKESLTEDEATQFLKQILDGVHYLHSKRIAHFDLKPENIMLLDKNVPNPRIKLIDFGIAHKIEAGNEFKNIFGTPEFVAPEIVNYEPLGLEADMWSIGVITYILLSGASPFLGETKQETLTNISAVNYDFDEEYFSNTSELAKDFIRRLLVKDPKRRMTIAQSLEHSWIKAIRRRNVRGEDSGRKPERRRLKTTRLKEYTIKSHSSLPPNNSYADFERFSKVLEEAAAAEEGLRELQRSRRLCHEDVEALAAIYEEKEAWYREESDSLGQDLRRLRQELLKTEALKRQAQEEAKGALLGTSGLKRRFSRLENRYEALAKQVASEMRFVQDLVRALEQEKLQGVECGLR
PKNB(M.tuberculosis), sequence (P9WI81 whole entry): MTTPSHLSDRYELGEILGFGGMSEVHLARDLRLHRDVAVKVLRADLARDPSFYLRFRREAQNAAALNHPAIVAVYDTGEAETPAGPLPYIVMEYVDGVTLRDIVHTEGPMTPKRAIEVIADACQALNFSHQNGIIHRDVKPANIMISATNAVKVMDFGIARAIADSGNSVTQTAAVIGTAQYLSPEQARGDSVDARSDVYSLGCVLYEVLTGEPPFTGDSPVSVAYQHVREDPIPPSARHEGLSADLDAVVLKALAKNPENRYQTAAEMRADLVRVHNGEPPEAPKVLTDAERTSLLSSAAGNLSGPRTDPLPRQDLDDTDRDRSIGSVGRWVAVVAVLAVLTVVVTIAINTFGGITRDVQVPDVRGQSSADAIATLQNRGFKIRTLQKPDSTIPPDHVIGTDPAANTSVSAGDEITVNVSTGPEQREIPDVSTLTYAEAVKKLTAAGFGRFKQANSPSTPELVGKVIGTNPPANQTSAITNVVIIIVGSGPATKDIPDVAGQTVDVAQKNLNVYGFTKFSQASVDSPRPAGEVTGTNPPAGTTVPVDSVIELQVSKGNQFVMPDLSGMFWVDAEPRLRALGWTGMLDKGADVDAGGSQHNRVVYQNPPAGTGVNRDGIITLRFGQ
T7 sequence (Q06418 41-890): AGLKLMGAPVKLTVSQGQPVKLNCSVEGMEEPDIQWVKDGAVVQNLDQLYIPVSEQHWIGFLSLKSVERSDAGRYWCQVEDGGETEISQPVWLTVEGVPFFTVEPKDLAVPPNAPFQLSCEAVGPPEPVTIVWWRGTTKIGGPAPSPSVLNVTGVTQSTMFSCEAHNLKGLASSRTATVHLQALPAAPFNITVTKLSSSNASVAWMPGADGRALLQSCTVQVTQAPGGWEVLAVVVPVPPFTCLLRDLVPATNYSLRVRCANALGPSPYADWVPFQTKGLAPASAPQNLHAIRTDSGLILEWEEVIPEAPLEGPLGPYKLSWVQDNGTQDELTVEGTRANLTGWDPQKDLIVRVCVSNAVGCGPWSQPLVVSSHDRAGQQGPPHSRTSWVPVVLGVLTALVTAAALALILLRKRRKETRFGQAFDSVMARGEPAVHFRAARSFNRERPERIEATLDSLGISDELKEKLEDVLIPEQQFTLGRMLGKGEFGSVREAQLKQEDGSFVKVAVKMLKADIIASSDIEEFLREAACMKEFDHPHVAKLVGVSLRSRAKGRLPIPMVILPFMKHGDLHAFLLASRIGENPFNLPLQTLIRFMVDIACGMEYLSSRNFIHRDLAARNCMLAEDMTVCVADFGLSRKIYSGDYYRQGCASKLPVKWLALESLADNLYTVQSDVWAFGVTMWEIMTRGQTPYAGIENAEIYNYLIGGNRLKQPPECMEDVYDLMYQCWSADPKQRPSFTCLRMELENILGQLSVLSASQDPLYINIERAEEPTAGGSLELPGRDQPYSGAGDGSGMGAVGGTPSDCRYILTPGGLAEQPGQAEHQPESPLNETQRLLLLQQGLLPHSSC
T8 sequence (Q96J92 whole entry): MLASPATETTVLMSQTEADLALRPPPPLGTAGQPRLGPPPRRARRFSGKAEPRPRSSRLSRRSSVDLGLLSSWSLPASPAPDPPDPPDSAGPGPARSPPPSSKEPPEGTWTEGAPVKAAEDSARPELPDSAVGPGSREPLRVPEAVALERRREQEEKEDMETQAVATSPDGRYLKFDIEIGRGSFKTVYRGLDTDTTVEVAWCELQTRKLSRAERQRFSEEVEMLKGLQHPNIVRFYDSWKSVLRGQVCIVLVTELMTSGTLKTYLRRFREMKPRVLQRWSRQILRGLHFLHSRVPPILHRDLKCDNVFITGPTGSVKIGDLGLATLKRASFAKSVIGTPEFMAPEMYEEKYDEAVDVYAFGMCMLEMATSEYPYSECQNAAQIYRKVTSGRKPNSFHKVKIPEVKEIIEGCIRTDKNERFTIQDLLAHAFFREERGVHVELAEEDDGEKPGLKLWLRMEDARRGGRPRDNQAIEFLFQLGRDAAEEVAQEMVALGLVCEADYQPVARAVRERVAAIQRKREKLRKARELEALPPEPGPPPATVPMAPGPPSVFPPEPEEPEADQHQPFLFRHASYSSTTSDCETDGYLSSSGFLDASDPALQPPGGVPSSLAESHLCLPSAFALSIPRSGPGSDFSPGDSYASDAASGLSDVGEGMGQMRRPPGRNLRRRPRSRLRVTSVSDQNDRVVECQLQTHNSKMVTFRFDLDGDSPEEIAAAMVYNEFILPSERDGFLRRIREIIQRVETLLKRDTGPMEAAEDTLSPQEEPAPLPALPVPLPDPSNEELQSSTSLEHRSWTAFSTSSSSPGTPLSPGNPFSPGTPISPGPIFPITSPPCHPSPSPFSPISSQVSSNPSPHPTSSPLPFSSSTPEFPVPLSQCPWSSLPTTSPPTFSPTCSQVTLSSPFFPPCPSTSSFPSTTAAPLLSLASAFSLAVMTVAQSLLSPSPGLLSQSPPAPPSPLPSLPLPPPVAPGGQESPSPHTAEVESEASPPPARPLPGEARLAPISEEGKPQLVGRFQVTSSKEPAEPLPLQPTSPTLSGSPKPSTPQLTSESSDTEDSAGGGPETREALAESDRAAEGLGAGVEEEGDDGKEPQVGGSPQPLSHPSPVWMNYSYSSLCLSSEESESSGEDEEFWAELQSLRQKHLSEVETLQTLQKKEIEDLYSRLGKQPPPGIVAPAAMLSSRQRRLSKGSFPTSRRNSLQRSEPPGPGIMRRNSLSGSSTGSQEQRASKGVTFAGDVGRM

## CN1CCN(C2CCC(n3cc(-c4ccc(Oc5ccccc5)cc4)c4c(N)ncnc43)CC2)CC1 (stereo not drawn) [A-419259]
Hck T338M; Hck gatekeeper threonine to methionine, vs wild-type
  reduction of kinase sensitivity to A-419259: 2 fold
Hck T338M; read-out: A-419259 IC50, Fig 5B, Hck T338M, ATP at Km, mean ± SE, three independent determinations
  IC50: 94.9 ± 1.1 nM
Fgr T338L
  IC50: 218.4 ± 1.1 nM
Fgr T338F; Fgr gatekeeper phenylalanine substitution, vs wild-type
  resistance to A-419259: ~5 fold
Fgr T338F; read-out: A-419259 IC50, Fig 5B, Fgr T338F, ATP at Km, mean ± SE, three independent determinations
  IC50: 282.9 ± 1.1 nM
[1]
  growth inhibition: less than 20%
MOLM13 cells (parent); [4]
  IC50: 40.3 ± 9.9 nM
MOLM13 cells (parent); [5]
  IC50: 38.4 ± 0.9 nM
MOLM14 cells (parent); [4]
  IC50: 14.3 ± 1.5 nM
MOLM14 cells (parent); [5]
  IC50: 26.4 ± 7.7 nM
MV4-11 cells (parent); Fig 3A, 72 hours, read-out: IC50 (cell viability)
  IC50: 58 nM
MV4-11 cells (parent); read-out: A-419259 Sensitivity (IC50, nM) Initial, MV4-11 Parent, mean ± SE (n = 3)
  IC50: 28.3 ± 3.5 nM
MV4-11 cells (parent); read-out: A-419259 Sensitivity (IC50, nM) Post-holiday, MV4-11 Parent, after 4 weeks passage in the absence of inhibitor, mean ± SE (n = 3)
  IC50: 27.5 ± 4.3 nM
[2]; Fgr T338L as printed
  resistance to the inhibitor in cells: about 3 fold
[2]; Fig 6B, TF-1/FLT3-ITD + Fgr-T338L, 72 hours
  IC50: > 1000 nM
[3]
  IC50: 173 nM
DAPK3
  % Control: 100%
JNK2
  % Control: 94%
MRCKA
  % Control: 98%
TYRO3
  % Control: 66%
WNK4
  % Control: 39%
CDC2L5
  % Control: 77%
PKNB(M.tuberculosis)
  % Control: 82%
EGFR(L747-T751del,Sins)
  % Control: 16%
FLT3(ITD,D835V)
  % Control: 30%
LCK
  % Control: 2.3%
PRP4
  % Control: 98%
